Measurements: paper PMC12630686, “A degron-mimicking molecular glue drives CRBN homo-dimerization and degradation” (Nature Communications, 2025)

Columns and labels:
Cereblon (CRBN) [1] = biological target: T1, Cereblon (CRBN) (Homo sapiens, UniProt Q96SW2); assay: TR-FRET displacement of Cy5-thalidomide from CRBN-DDB1; format: binding; design: 6xHis-CRBN-DDB1 complex; with DDB1
Target sequence in this assay (Q96SW2 40-442): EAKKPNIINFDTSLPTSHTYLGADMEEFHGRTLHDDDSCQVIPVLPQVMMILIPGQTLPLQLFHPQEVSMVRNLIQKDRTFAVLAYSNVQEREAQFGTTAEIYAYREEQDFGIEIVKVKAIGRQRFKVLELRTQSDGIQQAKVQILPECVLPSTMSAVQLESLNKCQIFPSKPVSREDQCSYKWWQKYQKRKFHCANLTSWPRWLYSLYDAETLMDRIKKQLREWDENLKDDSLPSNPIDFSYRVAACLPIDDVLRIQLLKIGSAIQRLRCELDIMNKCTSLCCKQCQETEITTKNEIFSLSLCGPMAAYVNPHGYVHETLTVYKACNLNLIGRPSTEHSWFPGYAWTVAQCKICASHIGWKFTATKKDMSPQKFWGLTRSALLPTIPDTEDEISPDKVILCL
Target sequence in this assay (Q16531 whole entry partner): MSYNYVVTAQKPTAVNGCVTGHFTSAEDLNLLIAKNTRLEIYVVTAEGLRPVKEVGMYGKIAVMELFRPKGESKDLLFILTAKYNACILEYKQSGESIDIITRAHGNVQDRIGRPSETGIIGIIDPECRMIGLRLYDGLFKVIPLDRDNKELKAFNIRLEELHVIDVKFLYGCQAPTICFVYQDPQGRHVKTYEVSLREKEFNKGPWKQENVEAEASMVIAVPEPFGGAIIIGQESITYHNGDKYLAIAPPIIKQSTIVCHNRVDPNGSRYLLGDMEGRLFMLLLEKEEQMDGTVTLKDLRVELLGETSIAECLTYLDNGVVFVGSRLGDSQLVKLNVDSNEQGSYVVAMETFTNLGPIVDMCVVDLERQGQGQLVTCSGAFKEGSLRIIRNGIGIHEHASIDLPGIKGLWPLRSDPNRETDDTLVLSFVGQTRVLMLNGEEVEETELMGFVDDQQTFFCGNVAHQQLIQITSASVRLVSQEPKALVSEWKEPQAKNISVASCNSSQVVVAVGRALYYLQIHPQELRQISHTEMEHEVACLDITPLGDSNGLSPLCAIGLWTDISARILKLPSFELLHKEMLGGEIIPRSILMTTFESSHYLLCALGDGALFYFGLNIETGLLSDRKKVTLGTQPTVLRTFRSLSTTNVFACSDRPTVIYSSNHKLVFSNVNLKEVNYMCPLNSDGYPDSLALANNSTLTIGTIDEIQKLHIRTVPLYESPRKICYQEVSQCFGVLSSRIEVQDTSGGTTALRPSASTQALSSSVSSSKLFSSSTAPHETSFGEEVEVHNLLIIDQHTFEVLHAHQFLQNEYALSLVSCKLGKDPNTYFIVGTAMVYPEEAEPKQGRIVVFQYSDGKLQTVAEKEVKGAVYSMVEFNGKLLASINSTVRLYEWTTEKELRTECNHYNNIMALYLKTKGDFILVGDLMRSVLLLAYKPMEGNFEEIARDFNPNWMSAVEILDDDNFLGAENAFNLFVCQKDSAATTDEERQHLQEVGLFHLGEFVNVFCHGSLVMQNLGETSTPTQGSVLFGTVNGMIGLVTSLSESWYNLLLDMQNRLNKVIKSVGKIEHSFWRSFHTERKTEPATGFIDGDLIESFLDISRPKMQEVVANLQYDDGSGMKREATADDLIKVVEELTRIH

Cereblon (CRBN) [2] = biological target: T1, Cereblon (CRBN); assay: cryo-EM structure ([…] Å and […] Å); TR-FRET thalidomide displacement (IC50); FIDA and SEC-MALS; format: binding; design: 6xHis-CRBN-DDB1 complex (per checker note), TR-FRET thalidomide displacement; not the cryo-EM CRBN 41-442/DDB1ΔBPB homodimer
Target sequence in this assay (Q96SW2 whole entry): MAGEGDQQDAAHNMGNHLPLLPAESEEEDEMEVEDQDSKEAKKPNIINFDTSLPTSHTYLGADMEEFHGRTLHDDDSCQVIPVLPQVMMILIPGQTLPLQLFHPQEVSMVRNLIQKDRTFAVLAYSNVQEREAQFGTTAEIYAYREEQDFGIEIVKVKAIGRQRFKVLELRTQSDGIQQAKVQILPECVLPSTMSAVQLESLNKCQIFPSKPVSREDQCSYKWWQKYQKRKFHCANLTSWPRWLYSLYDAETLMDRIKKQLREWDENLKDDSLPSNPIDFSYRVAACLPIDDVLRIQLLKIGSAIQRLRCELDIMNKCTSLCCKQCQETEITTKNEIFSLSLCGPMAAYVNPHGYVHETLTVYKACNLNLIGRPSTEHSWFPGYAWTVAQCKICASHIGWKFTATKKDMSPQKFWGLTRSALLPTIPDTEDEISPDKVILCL
Target sequence in this assay (Q16531 2-1140 partner): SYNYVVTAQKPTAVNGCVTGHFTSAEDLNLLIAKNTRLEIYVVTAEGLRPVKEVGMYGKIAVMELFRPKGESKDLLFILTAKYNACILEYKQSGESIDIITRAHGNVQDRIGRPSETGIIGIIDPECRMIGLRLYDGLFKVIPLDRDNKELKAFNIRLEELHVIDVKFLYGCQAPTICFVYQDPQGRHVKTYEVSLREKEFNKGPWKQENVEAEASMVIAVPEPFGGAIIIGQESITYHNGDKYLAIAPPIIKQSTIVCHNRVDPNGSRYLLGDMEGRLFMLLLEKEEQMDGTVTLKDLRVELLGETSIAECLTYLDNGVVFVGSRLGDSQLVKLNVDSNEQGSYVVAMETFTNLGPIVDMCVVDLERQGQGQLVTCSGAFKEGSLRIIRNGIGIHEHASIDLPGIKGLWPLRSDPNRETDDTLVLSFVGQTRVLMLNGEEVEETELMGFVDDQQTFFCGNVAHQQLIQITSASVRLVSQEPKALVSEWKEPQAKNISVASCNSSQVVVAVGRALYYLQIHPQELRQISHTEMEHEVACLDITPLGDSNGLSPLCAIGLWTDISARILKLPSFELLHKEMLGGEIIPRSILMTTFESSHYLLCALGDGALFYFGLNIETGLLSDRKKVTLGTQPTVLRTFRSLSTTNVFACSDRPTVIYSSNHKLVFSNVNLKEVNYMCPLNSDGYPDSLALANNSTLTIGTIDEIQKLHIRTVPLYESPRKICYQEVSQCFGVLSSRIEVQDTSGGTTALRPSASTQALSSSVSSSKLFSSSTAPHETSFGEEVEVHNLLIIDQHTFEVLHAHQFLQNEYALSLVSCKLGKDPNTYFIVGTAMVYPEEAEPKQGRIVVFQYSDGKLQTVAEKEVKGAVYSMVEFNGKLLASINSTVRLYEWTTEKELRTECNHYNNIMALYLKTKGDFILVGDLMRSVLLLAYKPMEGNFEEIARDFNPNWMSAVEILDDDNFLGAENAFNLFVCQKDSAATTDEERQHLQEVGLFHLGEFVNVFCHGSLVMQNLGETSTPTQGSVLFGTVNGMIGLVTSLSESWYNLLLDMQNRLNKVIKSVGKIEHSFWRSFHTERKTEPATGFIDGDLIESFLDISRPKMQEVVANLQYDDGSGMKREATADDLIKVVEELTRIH

With `O=C1CCC(N2Cc3ccc(N4CCC5(CCN(Cc6ccccc6)CC5)C4)cc3C2=O)C(=O)N1` (centres unmarked) [MRT-30568] the IC50 (Cereblon (CRBN) [1]) was 60 nM.
Work on `O=C1CCC(N2Cc3ccc(N4CCC5(CCN(C(=O)c6ccccc6)CC5)C4)cc3C2=O)C(=O)N1` (centres unmarked) [MRT-31619] yielded an IC50 (Cereblon (CRBN) [2]) of 14 nM.
